Experimental data reported in ChEMBL document CHEMBL4837260, “Structure-Guided Design of a Small-Molecule Activator of Sirtuin-3 that Modulates Autophagy in Triple Negative Breast Cancer” (J Med Chem, 2021).

Columns and labels:
[1] = target: T1, NAD-dependent protein deacetylase sirtuin-3, mitochondrial (Homo sapiens, UniProt Q9NTG7); experiment: Activation of recombinant human SIRT3 assessed as lysyl deacetylase activity using (Gln-Pro-Lys-Lys(Ac)) peptide substrate by fluorescent assay
T1 sequence (Q9NTG7 whole entry): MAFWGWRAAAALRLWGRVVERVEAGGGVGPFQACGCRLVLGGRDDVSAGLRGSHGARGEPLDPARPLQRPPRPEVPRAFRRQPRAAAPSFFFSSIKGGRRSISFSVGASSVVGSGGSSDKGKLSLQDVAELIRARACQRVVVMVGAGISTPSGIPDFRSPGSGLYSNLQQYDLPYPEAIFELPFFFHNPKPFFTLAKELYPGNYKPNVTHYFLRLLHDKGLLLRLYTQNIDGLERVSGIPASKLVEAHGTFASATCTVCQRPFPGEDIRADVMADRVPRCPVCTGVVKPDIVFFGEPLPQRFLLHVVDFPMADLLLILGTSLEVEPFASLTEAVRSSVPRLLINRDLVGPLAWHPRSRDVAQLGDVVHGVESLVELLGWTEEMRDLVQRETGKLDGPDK

[2] = system: HL-60; experiment: Antiproliferative activity against human HL-60 cells measured after 24 hrs by MTT assay; format: functional, cell-based; conditions: HL-60, 24 h
[3] = system: U-937; experiment: Antiproliferative activity against human U-937 cells measured after 24 hrs by MTT assay; format: functional, cell-based; conditions: U-937, 24 h
[4] = system: MCF7; experiment: Antiproliferative activity against human MCF7 cells measured after 24 hrs by MTT assay; format: functional, cell-based; conditions: MCF7, 24 h
[5] = system: MDA-MB-231; experiment: Antiproliferative activity against human MDA-MB-231 cells measured after 24 hrs by MTT assay; format: functional, cell-based; conditions: MDA-MB-231, 24 h
[6] = Toxicity in BALB/c mouse xenografted with human MDA-MB-231 cells assessed as change in body weight at 25 mg/kg once daily for 1 week; format: organism-based; conditions: in vivo, 168 h, time 1 weeks
[7] = Toxicity in BALB/c mouse xenografted with human MDA-MB-231 cells assessed as change in body weight at 100 mg/kg once daily for 1 week; format: organism-based; conditions: in vivo, 168 h, time 1 weeks
[8] = Toxicity in BALB/c mouse xenografted with human MDA-MB-231 cells assessed as widening of the pulmonary septum and more cellular components at 100 mg/kg once daily for 1 week by H&E staining; format: organism-based; conditions: in vivo, 168 h, time 1 weeks

Structure (SMILES)	EC50 [1]	IC50 [2]	IC50 [3]	IC50 [4]	IC50 [5]	Activity [6]	Activity [7]	Activity [8]
CCCCc1oc2ccccc2c1C(=O)c1cc(I)c(OCCN2CCCC2)c(I)c1	16.2 µM	23.2 µM	31.7 µM	> 50 µM	20.4 µM			
CCCCc1oc2ccccc2c1C(=O)c1cc(I)c(OCCCN(C)Cc2ccccc2)c(I)c1		8.51 µM	6.86 µM	8.02 µM	54 µM			
CCCCc1oc2ccccc2c1C(=O)c1cc(I)c(OCCCC2CCCC2)c(I)c1		> 50 µM	42.2 µM	> 50 µM	> 50 µM			
CCCCc1oc2ccccc2c1C(=O)c1ccc(OCCCN2CCCC2)cc1		6.38 µM	6.82 µM	3.73 µM	19.5 µM			
CCCCc1oc2ccccc2c1C(=O)c1cc(I)c(OCCCNCc2ccccc2)c(I)c1	10.7 µM	4.4 µM	2.3 µM	8.05 µM	11.6 µM			
CCCCc1oc2ccccc2c1C(=O)c1ccc(OCCCC(=O)N[C@H](C)c2ccccc2)cc1		> 50 µM	30.7 µM	> 50 µM	> 50 µM			
Oc1ccc(/C=C/c2cc(O)cc(O)c2)cc1 [RESVERATROL]	55.2 µM				98.8 µM			
CCCCc1oc2ccccc2c1C(=O)c1cc(I)c(OCCCN2CCCC2)c(I)c1						Non-Toxic	Non-Toxic	Non-Toxic
CCCCc1oc2ccccc2c1C(=O)c1cc(I)c(OCCCN2CCN(Cc3ccccc3)CC2)c(I)c1		> 50 µM	41.4 µM	28.7 µM	15.7 µM			
CCCCc1oc2ccccc2c1C(=O)c1cc(I)c(OCCCN(CC)CC)c(I)c1	4.15 µM	16 µM	30 µM	21.5 µM	26.8 µM			
CCCCc1oc2ccccc2c1C(=O)c1ccc(OCCCC(=O)N2CCOCC2)cc1	3.02 µM	34 µM	21.4 µM	41.2 µM	31.6 µM			
CCCCc1oc2ccccc2c1C(=O)c1ccc(OCCCC(=O)N[C@@H](C)c2ccccc2)cc1	7.01 µM	> 50 µM	22.4 µM	> 50 µM	> 50 µM			
C=CCc1ccc(O)c(-c2ccc(O)c(CC=C)c2)c1 [HONOKIOL]	0.17 µM				44.9 µM			

Now from value to molecule, other results behind:

EC50 [1]	IC50 [2]	IC50 [3]	IC50 [4]	IC50 [5]	Structure (SMILES)	Activity [6]	Activity [7]	Activity [8]
1.23 µM	> 50 µM	45.4 µM	34 µM	> 50 µM	CCCCc1oc2ccccc2c1C(=O)c1ccc(OCC(=O)N2CCOCC2)cc1			
	> 50 µM	16.3 µM	19.6 µM	> 50 µM	CCCCc1oc2ccccc2c1C(=O)c1ccc(OCC(=O)NCc2ccccc2)cc1			
	> 50 µM	33.8 µM	17.9 µM	> 50 µM	CCCCc1oc2ccccc2c1C(=O)c1ccc(OCC(=O)N[C@@H](C)c2ccccc2)cc1			
2.38 µM	31.9 µM	16.6 µM	33 µM	36 µM	CCCCc1oc2ccccc2c1C(=O)c1ccc(OCCCC(=O)N2CCCCC2)cc1			
1.65 µM	11.5 µM	18.2 µM	37.9 µM	15.7 µM	CCCCc1oc2ccccc2c1C(=O)c1cc(I)c(OCCCN2CCCCC2)c(I)c1			
2.68 µM	> 50 µM	37.1 µM	> 50 µM	> 50 µM	CCCCc1oc2ccccc2c1C(=O)c1ccc(OCC(=O)N2CCCCC2)cc1			
3.25 µM					CCCCc1oc2ccccc2c1C(=O)c1cc(I)c(OCCN(CC)CC)c(I)c1 [AMIODARONE]			
17.4 µM	> 50 µM	19.8 µM	14.1 µM	39 µM	CCCCc1oc2ccccc2c1C(=O)c1ccc(OCC(=O)N[C@H](C)c2ccccc2)cc1			
	> 50 µM	24.2 µM	38.5 µM	> 50 µM	CCCCc1oc2ccccc2c1C(=O)c1ccc(OCC(=O)Nc2cccc(OC)c2)cc1			
	> 50 µM	10.5 µM	> 50 µM	> 50 µM	CCCCc1oc2ccccc2c1C(=O)c1ccc(OCCCC(=O)N(C)Cc2ccccc2)cc1			
18.9 µM	> 50 µM	22.8 µM	> 50 µM	34.5 µM	CCCCNC(=O)COc1ccc(C(=O)c2c(CCCC)oc3ccccc23)cc1			
16.7 µM	> 50 µM	24.6 µM	> 50 µM	38.1 µM	CCCCNC(=O)CCCOc1ccc(C(=O)c2c(CCCC)oc3ccccc23)cc1			
	2.77 µM	3.47 µM	5.26 µM	19.4 µM	CCCCc1oc2ccccc2c1C(=O)c1ccc(OCCN(CC)CC)cc1			
	> 50 µM	42.2 µM	> 50 µM	> 50 µM	CCCCc1oc2ccccc2c1C(=O)c1ccc(OCC(N)=O)cc1			
	28.9 µM	15.8 µM	49.7 µM	> 50 µM	CCCCc1oc2ccccc2c1C(=O)c1ccc(OCCCC(=O)NCc2ccccc2)cc1			
4.69 µM	8.22 µM	8.68 µM	39.4 µM	6.6 µM	CCCCc1oc2ccccc2c1C(=O)c1cc(I)c(OCCN(C)C)c(I)c1			
3.46 µM	> 50 µM	> 50 µM	5.37 µM	8.76 µM	CCCCc1oc2ccccc2c1C(=O)c1cc(I)c(OCCCN2CCN(C)CC2)c(I)c1			
0.81 µM	11.3 µM	25.2 µM	27.7 µM	28.2 µM	CCCCc1oc2ccccc2c1C(=O)c1cc(Cl)c(OCCCN2CCCC2)c(Cl)c1			
